Reference: publication PMC4869360, “An allosteric role for receptor activity-modifying proteins in defining GPCR pharmacology” (Cell Discovery, 2016)
Where no end group is shown, it is not given here.

Columns and labels:
[1] = Ala scan of an amylin analogue; cited from earlier work
Description: Of the residues impacting on peptide function only R126 contributed to amylin or CGRP function but not that of CT. R126 in the CTR/RAMP complex sits in close proximity to W84 (RAMP1) that may form an interaction with the peptide C-terminus for amylin and CGRP, and thus may contribute to the orientation of the peptide C-terminus to allow this interaction. The net contribution of the RAMP interaction is a reordering of residues in loop 5 that facilitates the peptide turn of amylin and CGRP and interaction of the C-terminus with the W84 of the RAMP, with reorientation of loop 4 residues facilitat ...

[2] = test system: CT(a) receptor ECD alanine mutants; assay: 125I-hCT radioligand binding, CT(a) mutants; set-up: species or system human; settings: Ala mutation of W79, F99, D101, F102, H121, W128 and Y131; ~50 pM, 1 h, 37 °C, whole Cos-7 cells
Description: transfected with CT(a). […] Data are
binding observed for each peptide.
For C, D and E statistical

125I-hCT binding [2] | Substance | binding [1]
 | V32: amylin analogue with V32 substitution, from Ala scan of ref 34 (KCNTATCATQRLANFLVHSSNNFGAILSSTNAGSNTY; ends and bridges not checked; cysteine pairing not given here; UniProt P10997 34-70, looked up, variant V32A) | abolishing binding
 | T30: amylin analogue with T30 substitution, from Ala scan of ref 34 (KCNTATCATQRLANFLVHSSNNFGAILSSANVGSNTY; ends and bridges not checked; cysteine pairing not given here; UniProt P10997 34-70, looked up, variant T30A) | abolishing binding
significantly reduced | ^125I-hCT: hCT radioiodinated with iodination bead, purified by reverse-phase HPLC | 
